Assay results published in patent publication US8063099B2, “Trans-3-aza-bicyclo[3.1.0]hexane derivatives” (Actelion Pharmaceuticals Ltd., priority 2007, dated 2011).
pIC50: −log10 of the molar value. Where two headings read alike, the source gives them in different places.

How the values were obtained:
human orexin-1 receptor = target: T1, human orexin-1 receptor (Homo sapiens, UniProt O43613); assay: Intracellular calcium measurements (FLIPR), orexin receptor antagonistic activity; format: cell-based; conditions: FLIPR Tetra, CHO cells expressing human orexin-1 receptor, 3 nM orexin-A, read-out: OX1 IC50
T1 construct: expressed in transfected cells; host or cells: Chinese hamster ovary (CHO) cells, G418 selection
T1 sequence (O43613 1-425): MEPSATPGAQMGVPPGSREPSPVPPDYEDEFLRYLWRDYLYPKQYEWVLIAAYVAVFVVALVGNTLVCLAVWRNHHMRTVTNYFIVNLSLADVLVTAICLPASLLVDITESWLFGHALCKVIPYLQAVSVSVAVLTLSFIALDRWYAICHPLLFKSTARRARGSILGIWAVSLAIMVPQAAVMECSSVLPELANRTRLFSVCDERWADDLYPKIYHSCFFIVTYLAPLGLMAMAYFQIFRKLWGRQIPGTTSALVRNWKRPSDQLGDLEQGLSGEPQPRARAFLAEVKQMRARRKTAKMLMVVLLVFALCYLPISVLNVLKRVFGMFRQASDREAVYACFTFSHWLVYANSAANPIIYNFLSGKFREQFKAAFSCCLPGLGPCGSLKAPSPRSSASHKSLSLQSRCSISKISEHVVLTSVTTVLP
Method: (§1) The orexin receptor antagonistic activity of the compounds of formula (I) is determined in accordance with one of the following experimental methods.
(§2) Intracellular Calcium Measurements:
(§3) Chinese hamster ovary (CHO) cells expressing the human orexin-1 receptor and the human orexin-2 receptor, respectively, are grown in culture medium (Ham F-12 with L-Glutamine) containing 300 μg/ml G418, 100 U/ml penicillin, 100 μg/ml streptomycin and 10% heat inactivated fetal calf serum (FCS). The cells are seeded at 20'000 cells/well into 384-well black clear bottom sterile plates (Greiner). The seeded plates are incubated overnight at 37° C. in 5% CO2.
(§4) Human orexin-A as an agonist is prepared as 1 mM stock solution in MeOH:water (1:1), diluted in HBSS containing 0.1% bovine serum albumin (BSA), NaHCO3:0.375 g/l and 20 mM HEPES for use in the assay at a final concentration of 3 nM.
(§5) Antagonists are prepared as 10 mM stock solution in DMSO, then diluted in 384-well plates, first in DMSO, then in HBSS containing 0.1% bovine serum albumin (BSA), NaHCO3: 0.375 g/l and 20 mM HEPES.
(§6) On the day of the assay, 50 μl of staining buffer (HBSS containing 1% FCS, 20 mM HEPES, NaHCO3: 0.375 g/l, 5 mM probenecid (Sigma) and 3 μM of the fluorescent calcium indicator fluo-4 AM (1 mM stock solution in DMSO, containing 10% pluronic) is added to each well.
(§7) The 384-well cell-plates are incubated for 50 min at 37° C. in 5% CO2 followed by equilibration at RT for 30-120 min before measurement.
(§8) Within the Fluorescent Imaging Plate Reader (FLIPR2 or FLIPR Tetra, Molecular Devices), antagonists are added to the plate in a volume of 10 μl/well, incubated for 10 min and finally 10 μl/well of agonist is added. Fluorescence is measured for each well at 1 second intervals, and the height of each fluorescence peak is compared to the height of the fluorescence peak induced by 3 nM orexin-A with vehicle in place of antagonist. For each antagonist, the IC50 value (the concentration of compound needed to inhibit 50% of the agonistic response) is determined. With the FLIPR Tetra, non-optimized and optimized conditions were used. Optimized conditions were achieved by adjustment of pipetting speed and cell splitting regime. The calculated IC50 values of the compounds may fluctuate depending on the daily cellular assay performance. Fluctuations of this kind are known to those skilled in the art.

human orexin-2 receptor = target: T2, human orexin-2 receptor (Homo sapiens, UniProt O43614); assay: as above; format: cell-based; conditions: FLIPR Tetra, CHO cells expressing human orexin-2 receptor, 3 nM orexin-A, read-out: OX2 IC50
T2 construct: expressed in transfected cells; host or cells: Chinese hamster ovary (CHO) cells, G418 selection
T2 sequence (O43614 1-444): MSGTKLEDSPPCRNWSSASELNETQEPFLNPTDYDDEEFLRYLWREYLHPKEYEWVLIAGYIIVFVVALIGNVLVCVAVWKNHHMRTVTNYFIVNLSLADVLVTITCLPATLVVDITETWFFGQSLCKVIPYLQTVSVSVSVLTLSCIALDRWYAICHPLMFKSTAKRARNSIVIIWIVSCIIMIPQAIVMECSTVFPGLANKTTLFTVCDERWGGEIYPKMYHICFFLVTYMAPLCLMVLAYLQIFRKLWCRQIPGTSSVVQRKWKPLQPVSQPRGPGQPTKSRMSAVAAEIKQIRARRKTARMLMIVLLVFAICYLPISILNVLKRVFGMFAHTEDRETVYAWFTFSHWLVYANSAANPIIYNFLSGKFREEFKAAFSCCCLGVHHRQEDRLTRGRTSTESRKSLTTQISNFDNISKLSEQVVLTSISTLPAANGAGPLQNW
Method: as §1, §2, §3, §4, §5, §6, §7, §8

Row | SMILES | pIC50 (human orexin-1 receptor; non-optimized conditions) | pIC50 (human orexin-2 receptor; non-optimized conditions) | pIC50 (human orexin-1 receptor; optimized conditions) | pIC50 (human orexin-2 receptor; optimized conditions)
1 | N#Cc1ccc(-c2sc(C3CC3)nc2C(=O)N2C[C@@H]3C[C@@H]3[C@H]2CNC(=O)c2cccc(Cl)c2)cc1 [Example 186, 3-Chloro-N-{(1S,2S,5R)-3-[5-(4-cyano-phenyl)-2-cyclopropyl-thiazole-4-carbonyl]-3-aza-bicyclo[3.1.0]hex-2-ylmethyl}-benzamide] | 5.49 | 6.53 |  | 
2 | CN(C)c1nc(C(=O)N2C[C@@H]3C[C@@H]3[C@H]2CNC(=O)c2scc3c2OCCO3)c(-c2cccc(F)c2)s1 [Example 220, 2,3-Dihydro-thieno[3,4-b][1,4]dioxine-5-carboxylic acid {(1S,2S,5R)-3-[2-dimethylamino-5-(3-fluoro-phenyl)-thiazole-4-carbonyl]-3-aza-bicyclo[3.1.0]hex-2-ylmethyl}-amide] | 6.94 | 7.32 |  | 
3 | Cc1ccc(-c2ccsc2C(=O)N2C[C@@H]3C[C@@H]3[C@H]2CNC(=O)c2c(C)nc3sccn23)cc1 [Example 222, 6-Methyl-imidazo[2,1-b]thiazole-5-carboxylic acid [(1S,2S,5R)-3-(3-p-tolyl-thiophene-2-carbonyl)-3-aza-bicyclo[3.1.0]hex-2-ylmethyl]-amide] |  |  | 7.02 | 7.10
4 | CCn1nc(C)cc1C(=O)NC[C@@H]1[C@H]2C[C@H]2CN1C(=O)c1nc(C2CC2)sc1-c1cccc(C)c1 [Example 237, 2-Ethyl-5-methyl-2H-pyrazole-3-carboxylic acid [(1S,2S,5R)-3-(2-cyclopropyl-5-m-tolyl-thiazole-4-carbonyl)-3-aza-bicyclo[3.1.0]hex-2-ylmethyl]-amide] |  |  | 7.54 | 7.42
5 | Cc1cccc(-c2sc(C)nc2C(=O)N2C[C@@H]3C[C@@H]3[C@H]2CNc2ncc(Br)cn2)c1 [Example 244, {(1S,2S,5R)-2-[(5-Bromo-pyrimidin-2-ylamino)-methyl]-3-aza-bicyclo[3.1.0]hex-3-yl}-(2-methyl-5-m-tolyl-thiazol-4-yl)-methanone] | 7.29 | 6.19 |  | 
6 | Cc1nc(C(=O)N2C[C@@H]3C[C@@H]3[C@H]2CNc2ncc(Br)cn2)c(-c2ccc(C)c(F)c2)s1 [Example 252, {(1S,2S,5R)-2-[(5-Bromo-pyrimidin-2-ylamino)-methyl]-3-aza-bicyclo[3.1.0]hex-3-yl}-[5-(3-fluoro-4-methyl-phenyl)-2-methyl-thiazol-4-yl]-methanone] | 7.10 | 6.46 |  | 
7 | Cc1ccc(-c2sccc2C(=O)N2C[C@@H]3C[C@@H]3[C@H]2CNC(=O)c2cccc3c2NCCO3)cc1 [Example 266, 3,4-Dihydro-2H-benzo[1,4]oxazine-5-carboxylic acid [(1S,2S,5R)-3-(2-p-tolyl-thiophene-3-carbonyl)-3-aza-bicyclo[3.1.0]hex-2-ylmethyl]-amide] |  |  | 7.19 | 7.72
8 | Cc1ccc(-c2sccc2C(=O)N2C[C@@H]3C[C@@H]3[C@H]2CNC(=O)c2cccc3nsnc23)cc1 [Example 274, Benzo[2,1,3]thiadiazole-4-carboxylic acid [(1S,2S,5R)-3-(2-p-tolyl-thiophene-3-carbonyl)-3-aza-bicyclo[3.1.0]hex-2-ylmethyl]-amide] |  |  | 7.24 | 7.26
9 | Cc1cccc(-c2sccc2C(=O)N2C[C@@H]3C[C@@H]3[C@H]2CNC(=O)c2cc3occc3n2C)c1 [Example 282, 4-Methyl-4H-furo[3,2-b]pyrrole-5-carboxylic acid [(1S,2S,5R)-3-(2-m-tolyl-thiophene-3-carbonyl)-3-aza-bicyclo[3.1.0]hex-2-ylmethyl]-amide] |  |  | 6.93 | 7.49

Results, then the compound that gave them:

Row | pIC50 (human orexin-1 receptor; non-optimized conditions) | pIC50 (human orexin-2 receptor; non-optimized conditions) | pIC50 (human orexin-1 receptor; optimized conditions) | pIC50 (human orexin-2 receptor; optimized conditions) | SMILES
10 | 6.17 | 6.46 |  |  | Cc1nc(C(=O)N2C[C@@H]3C[C@@H]3[C@H]2CNC(=O)c2cccc3c2CCO3)c(-c2cccc(C(F)(F)F)c2)s1 [Example 201, 2,3-Dihydro-benzofuran-4-carboxylic acid {(1S,2S,5R)-3-[2-methyl-5-(3-trifluoromethyl-phenyl)-thiazole-4-carbonyl]-3-aza-bicyclo[3.1.0]hex-2-ylmethyl}-amide]
11 |  |  | 7.19 | 7.26 | Cc1cccc(-c2sc(C)nc2C(=O)N2C[C@@H]3C[C@@H]3[C@H]2CNC(=O)c2cccc3nc(C)oc23)c1 [Example 256, 2-Methyl-benzoxazole-7-carboxylic acid [(1S,2S,5R)-3-(2-methyl-5-m-tolyl-thiazole-4-carbonyl)-3-aza-bicyclo[3.1.0]hex-2-ylmethyl]-amide]
12 |  |  | 7.80 | 7.51 | Cc1cccc(-c2sc(C)nc2C(=O)N2C[C@@H]3C[C@@H]3[C@H]2CNC(=O)c2ccn3ccsc23)c1 [Example 260, Pyrrolo[2,1-b]thiazole-7-carboxylic acid [(1S,2S,5R)-3-(2-methyl-5-m-tolyl-thiazole-4-carbonyl)-3-aza-bicyclo[3.1.0]hex-2-ylmethyl]-amide]
13 |  |  | 7.08 | 7.80 | Cc1cccc(-c2sccc2C(=O)N2C[C@@H]3C[C@@H]3[C@H]2CNC(=O)c2cccc3oc(C)nc23)c1 [Example 297, 2-Methyl-benzoxazole-4-carboxylic acid [(1S,2S,5R)-3-(2-m-tolyl-thiophene-3-carbonyl)-3-aza-bicyclo[3.1.0]hex-2-ylmethyl]-amide]
14 |  |  | 7.55 | 7.85 | Cc1cccc(-c2sc(C)nc2C(=O)N2C[C@@H]3C[C@@H]3[C@H]2CNC(=O)c2cccc3sc(Cl)nc23)c1 [Example 299, 2-Chloro-benzothiazole-4-carboxylic Acid[(1S,2S,5R)-3-(2-methyl-5-m-tolyl-thiazole-4-carbonyl)-3-aza-bicyclo[3.1.0]hex-2-ylmethyl]-amide]
